According to ChEMBL document CHEMBL1201862, “PubChem BioAssay data set” (2004):
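The compound was tested at five concentrations on cells cultured in 96-well plates, with a 48-hour exposure period. Here, GI50 denotes the concentration required for 50% inhibition of growth.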 The source made the active and inactive calls. Rule as the data show it: active = GI50 up to about 1.1 µM and inactive = higher.

Columns and labels:
Test in all cases: growth of human tumour cells (NCI), 48 h
786-0 = tested on: 786-0
A498 = tested on: A498
A549 = tested on: A549
ACHN = tested on: ACHN
CAKI-1 = tested on: CAKI-1
CCRF-CEM = tested on: CCRF-CEM
COLO 205 = tested on: COLO 205
DLD-1 = tested on: DLD-1
DMS-114 = tested on: DMS-114
DMS-273 = tested on: DMS-273
EKVX = tested on: EKVX
HCC 2998 = tested on: HCC 2998
HCT-116 = tested on: HCT-116
HCT-15 = tested on: HCT-15
HL-60 = tested on: HL-60
HOP-18 = tested on: HOP-18
HOP-62 = tested on: HOP-62
HOP-92 = tested on: HOP-92
HT-29 = tested on: HT-29
IGROV-1 = tested on: IGROV-1
K562 = tested on: K562
KM-20L2 = tested on: KM-20L2
KM12 = tested on: KM12
LOX IMVI = tested on: LOX IMVI
LXFL 529 = tested on: LXFL 529
M14 = tested on: M14
MOLT-4 = tested on: MOLT-4
Malme-3M = tested on: Malme-3M
NCI-H226 = tested on: NCI-H226
NCI-H23 = tested on: NCI-H23
NCI-H460 = tested on: NCI-H460
NCI-H522 = tested on: NCI-H522
OVCAR-3 = tested on: OVCAR-3
OVCAR-4 = tested on: OVCAR-4
OVCAR-5 = tested on: OVCAR-5
OVCAR-8 = tested on: OVCAR-8
RPMI-8226 = tested on: RPMI-8226
RXF 393 = tested on: RXF 393
RXF 631 = tested on: RXF 631
SF-268 = tested on: SF-268
SF-295 = tested on: SF-295
SF-539 = tested on: SF-539
SK-MEL-28 = tested on: SK-MEL-28
SK-MEL-2 = tested on: SK-MEL-2
SK-MEL-5 = tested on: SK-MEL-5
SK-OV-3 = tested on: SK-OV-3
SN12C = tested on: SN12C
SNB-19 = tested on: SNB-19
SNB-75 = tested on: SNB-75
SNB-78 = tested on: SNB-78
SR = tested on: SR
SW-620 = tested on: SW-620
TK-10 = tested on: TK-10
U-251 = tested on: U-251
UACC-257 = tested on: UACC-257
UACC-62 = tested on: UACC-62
UO-31 = tested on: UO-31
XF498 = tested on: XF498
M19-MEL = tested on: M19-MEL

CC(C)(C)c1ccc(Oc2ccc(C#N)c(C#N)c2)c(C(C)(C)C)c1
GI50 (786-0): 52.6 µM (inactive) | GI50 (A498): > 63.5 µM (inactive) | GI50 (A549): 60.4 µM (inactive) | GI50 (ACHN): 34.9 µM (inactive) | GI50 (CAKI-1): 56.4 µM (inactive) | GI50 (CCRF-CEM): 23.2 µM (inactive) | GI50 (COLO 205): 28.3 µM (inactive) | GI50 (DLD-1): 37 µM (inactive) | GI50 (DMS-114): 19.6 µM (inactive) | GI50 (DMS-273): 15.2 µM (inactive) | GI50 (EKVX): 58.2 µM (inactive) | GI50 (HCC 2998): 48.9 µM (inactive) | GI50 (HCT-116): 24.6 µM (inactive) | GI50 (HCT-15): 14.4 µM | GI50 (HL-60): 10.4 µM (inactive) | GI50 (HOP-18): > 100 µM (inactive) | GI50 (HOP-62): > 100 µM (inactive) | GI50 (HOP-92): 31.8 µM (inactive) | GI50 (HT-29): 34.3 µM (inactive) | GI50 (IGROV-1): > 89.7 µM (inactive) | GI50 (K562): 21.2 µM (inactive) | GI50 (KM-20L2): 44 µM (inactive) | GI50 (KM12): 29.8 µM (inactive) | GI50 (LOX IMVI): 30.6 µM (inactive) | GI50 (LXFL 529): 31.2 µM (inactive) | GI50 (M14): 53 µM (inactive) | GI50 (MOLT-4): 17.4 µM (inactive) | GI50 (Malme-3M): > 100 µM (inactive) | GI50 (NCI-H226): 46.6 µM (inactive) | GI50 (NCI-H23): 43.6 µM (inactive) | GI50 (NCI-H460): 28.8 µM (inactive) | GI50 (NCI-H522): 17.2 µM (inactive) | GI50 (OVCAR-3): 40.1 µM (inactive) | GI50 (OVCAR-4): 49.7 µM (inactive) | GI50 (OVCAR-5): > 21 µM (inactive) | GI50 (OVCAR-8): 51.4 µM (inactive) | GI50 (RPMI-8226): 17 µM (inactive) | GI50 (RXF 393): 24.3 µM (inactive) | GI50 (RXF 631): > 60.3 µM (inactive) | GI50 (SF-268): 32.7 µM (inactive) | GI50 (SF-295): > 58.9 µM (inactive) | GI50 (SF-539): > 93.5 µM (inactive) | GI50 (SK-MEL-28): 51.5 µM (inactive) | GI50 (SK-MEL-2): 40.6 µM (inactive) | GI50 (SK-MEL-5): 31.3 µM (inactive) | GI50 (SK-OV-3): > 100 µM (inactive) | GI50 (SN12C): 43 µM (inactive) | GI50 (SNB-19): 49.5 µM (inactive) | GI50 (SNB-75): > 26.3 µM (inactive) | GI50 (SNB-78): 42.5 µM (inactive) | GI50 (SR): 18.7 µM (inactive) | GI50 (SW-620): 49.3 µM (inactive) | GI50 (TK-10): > 100 µM (inactive) | GI50 (U-251): 33.7 µM (inactive) | GI50 (UACC-257): 29.4 µM (inactive) | GI50 (UACC-62): 52.1 µM (inactive) | GI50 (UO-31): 32.7 µM (inactive) | GI50 (XF498): 12.6 µM (inactive)

CC(C)c1ccc(C(c2ccc(OCC(=O)O)cc2)c2ccc(C(C)C)cc(=O)c2O)c(O)c(=O)c1
GI50 (786-0): 6.47 µM (inactive) | GI50 (A498): 23.9 µM (inactive) | GI50 (A549): 3.48 µM (inactive) | GI50 (ACHN): 4.66 µM (inactive) | GI50 (CAKI-1): 3.82 µM (inactive) | GI50 (CCRF-CEM): 4.05 µM (inactive) | GI50 (COLO 205): 3.14 µM (inactive) | GI50 (DLD-1): 3.48 µM (inactive) | GI50 (DMS-114): 2.92 µM (inactive) | GI50 (DMS-273): 3.45 µM (inactive) | GI50 (EKVX): 4.93 µM (inactive) | GI50 (HCC 2998): 4.94 µM (inactive) | GI50 (HCT-116): 3.76 µM (inactive) | GI50 (HCT-15): 3.56 µM | GI50 (HL-60): 3.27 µM (inactive) | GI50 (HOP-18): 9.89 µM (inactive) | GI50 (HOP-62): 2.79 µM (inactive) | GI50 (HOP-92): 0.0478 µM (active) | GI50 (HT-29): 3.92 µM (inactive) | GI50 (IGROV-1): 4.33 µM (inactive) | GI50 (K562): 3.41 µM (inactive) | GI50 (KM-20L2): 3.54 µM (inactive) | GI50 (LOX IMVI): 3.71 µM (inactive) | GI50 (LXFL 529): 4.5 µM (inactive) | GI50 (M14): 3.18 µM (inactive) | GI50 (M19-MEL): 4.94 µM (inactive) | GI50 (MOLT-4): 3.73 µM (inactive) | GI50 (NCI-H23): 3.78 µM (inactive) | GI50 (NCI-H460): 2.83 µM (inactive) | GI50 (OVCAR-3): 2.77 µM (inactive) | GI50 (OVCAR-4): 3.61 µM (inactive) | GI50 (OVCAR-8): 4.44 µM (inactive) | GI50 (RPMI-8226): 4.38 µM (inactive) | GI50 (RXF 393): 10.2 µM (inactive) | GI50 (RXF 631): 5.08 µM (inactive) | GI50 (SF-295): 4.4 µM (inactive) | GI50 (SF-539): 6.05 µM (inactive) | GI50 (SK-MEL-28): 4.81 µM (inactive) | GI50 (SK-MEL-5): 3.22 µM (inactive) | GI50 (SK-OV-3): 6.81 µM (inactive) | GI50 (SN12C): 4.15 µM (inactive) | GI50 (SNB-19): 5.89 µM (inactive) | GI50 (SNB-75): 3.29 µM (inactive) | GI50 (SNB-78): 6.79 µM (inactive) | GI50 (SW-620): 4.8 µM (inactive) | GI50 (TK-10): 5.3 µM (inactive) | GI50 (U-251): 5.3 µM (inactive) | GI50 (UACC-257): 5.6 µM (inactive) | GI50 (UACC-62): 3.55 µM (inactive) | GI50 (XF498): 2.63 µM (inactive)
